Data published in EP0277849A1, “Incorporation of one or more lipophilic, active principles into lipoproteins, lipoproteins obtained and pharmaceutical compositions containing them” (IRE-CELLTARG S.A., priority 1987, dated 1988).

Legend:
L. mexicana amazonentis = experiment: In vitro antileishmanial model: intracellular amastigotes in peritoneal macrophages; assay type: cell-based; conditions: for Nombre d'amastigotes (b) (% des contrôles): 35°, mean (SD) of 4
Experimental: Le modèle in vitro utilisé, consiste à développer les formes intracellulaires (amastigotes) de Leishmania mexicana anazonentis dans des macrophages péritonéaux de souris Balb/c injectés initialement par les formes promastigotes.
La culture de macrophages est obtenue à partir des cellules de la cavité péritonéale.
Brièvement, la cavité péritonéale est lavée plusieurs fois avec du milieu RPMI 1640 contenant de la pénicilline (100 U/ml) et de la streptomycine (100 µg/ml) additionné de glutamine (2 mM) et de 20 % de sérum de veau foetal décomplémenté à la chaleur. Ce milieu constitue le milieu de culture complet. Après centrifugation de la suspension cellulaire ainsi obtenue, les cellules sont resuspendues dans le même milieu, puis incubées 1 heure à 37° C en présence de 5 % C02 dans des boîtes de Pétri. Les macrophages adhérents sont ensuite lavés plusieurs fois, détachés de leur support puis comptés. Un volume cellulaire contenant 2,5 x 10^5 macrophages est ajouté dans chaque puits (16 mm de diamètre) des boîtes de culture contenant chacun une lamelle en verre. Les cellules sont ainsi cultivées 3 jours à 37°C. Avant d'être utilisées, les cultures sont lavées 2 fois pour retirer les cellules non adhérentes. Dans ces conditions, les cultures contiennent 1,5 à 2,0 x 10^5 macrophages.
La souche de L. mexicana amazonentis est maintenue sous forme promastigote à 27° C par passage successif dans du milieu Schneider Drosophila contenant 100 µg/ml de gentamycine, 2 mM de glutamine, 5 gg/ml d'hémine et additionné de 20 % de sérum de veau foetal décomplémenté.
Une suspension de promastigotes en phase stationnaire est ajoutée à chaque culture de macrophages à raison de 4 parasites par cellule. Les cultures sont incubées à 34,5°-35°C (5 % C02-95 % air) pendant 7 heures. Les cultures infectées sont lavées avec du milieu sans sérum jusqu'à ce qu'il y ait moins de un parasite par 20 macrophages. Une culture (1 boîte à 4 puits) est fixée et colorée au May-Grûnwald Giemsa pour contrôler l'infection (jour 0). S'il y a moins de 50 organismes intracellulaires par 100 macrophages, l'infection est considérée trop faible pour une interprétation correcte des résultats. 24 heures après l'infection, le milieu de culture est remplacé par du milieu frais contenant ou non un agent thérapeutique. Nous avons choisi d'utiliser le dérivé oléoyl-kétoconazole seul ou incorporé à des LSL natives ou acétylées. Le milieu (± l'agent thérapeutique) est renouvelé au jour 3. Au jour 6, des cultures de macrophages Infectés sont fixées, colorées, séchées, la lamelle de verre est ensuite montée sur une lame pour l'observation microscopique.
Le nombre d'amastigotes contenu dans 100 à 200 macrophages est déterminé pour chaque culture. Le nombre moyen d'organismes par 100 macrophages au jour 6 dans les cultures traitées est exprimé en pourcentage du nombre moyen d'organismes par 100 macrophages dans les cultures contrôles au jour 6 (% de survie). Les cultures contrôles contiennent en moyenne 300 à 400 parasites par 100 macrophages; 60 % en moyenne des macrophages sont infectés et contiennent de 5 à 7 amastigotes.

macrophages J77468 = experiment: Toxicity for J77468 macrophages (MTT reduction); assay type: cell-based, murine; conditions: for % de viabilité cellulaire*: 18 h, MTT
Experimental: La lignée continue de macrophages J77468 d'origine murine provient d'un clonage de la souche J774 ATCC, et est cultivée en milieu RPMI 1640 additionné de glutamine 2 mM, 10% de sérum de veau foetal (décomplémenté 60 min. à 56°) et de 10 mM Hepes (pH 7.2). Une suspension de 5 10^6 cellules/ml sont infectées avec une culture de Candida tropicalis (5 10^5 levures/ml) provenant d'une culture de nuit dans de la casitone. Le milieu d'infection utilisé est du RPMI contenant 2 % de sérum de veau nouveau-né et 10 mM Hepes (pH 7.2).
La viabilité des macrophages J77468 cultivés dans du milieu contenant l'agent antifongique encapsulé ou non dans les LDL figure au Tableau 5. K et K01 sont toxiques aux concentrations nécessaires pour réduire de 50 % l'infection intracellulaire (C1250) contrairement au LDL-K01 pour lequel aucune toxicité n'a pu être détectée.

[1] = Leishmania mexicana, Peritoneal macrophage, read-out: Activité (c) (% inhibition)

CCCCCCCC/C=C\CCCCCCCC(=O)N1CCN(c2ccc(OC[C@H]3CO[C@](Cn4ccnc4)(c4ccc(Cl)cc4Cl)O3)cc2)CC1 [KO1]
inhibition at 0.5 µg/mL (L. mexicana amazonentis; [1]): 28% | inhibition at 1 µg/mL (L. mexicana amazonentis; [1]): 43% | inhibition at 1.4 µg/mL (L. mexicana amazonentis; [1]): 50% | inhibition at 2 µg/mL (L. mexicana amazonentis; [1]): 56% | inhibition at 2.5 µg/mL (L. mexicana amazonentis; [1]): 64% | inhibition at 11 µg/mL (L. mexicana amazonentis; [1]): 90% | index thérapeutique (rapport de ED50 kéto sur ED50 K01) (L. mexicana amazonentis; compared with kétoconazole): 9 | Nombre d'amastigotes (b) (% des contrôles) (L. mexicana amazonentis; dose 0,5 µg/ml, 6 jours): 72 (6) % | Nombre d'amastigotes (b) (% des contrôles) (L. mexicana amazonentis; dose 1,0 µg/ml, 6 jours): 57 (3) % | Nombre d'amastigotes (b) (% des contrôles) (L. mexicana amazonentis; dose 1,4 µg/ml, 6 jours): 50 (4) % | Nombre d'amastigotes (b) (% des contrôles) (L. mexicana amazonentis; dose 2,0 µg/ml, 6 jours): 44 (2) % | Nombre d'amastigotes (b) (% des contrôles) (L. mexicana amazonentis; dose 2,5 µg/ml, 6 jours): 36 (6) % | Nombre d'amastigotes (b) (% des contrôles) (L. mexicana amazonentis; dose 11,0 µg/ml, 6 jours): 10 (4) % | ED50 (50 % d'inhibition) (L. mexicana amazonentis; intracellular amastigotes, 6 jours): 1,4 µg KO1.ml | toxicité aux concentrations nécessaires pour réduire de 50 % l'infection intracellulaire (macrophages J77468): toxiques | % de viabilité cellulaire* (macrophages J77468; Concentration 0,78 µM): 67,72% | % de viabilité cellulaire* (macrophages J77468; Concentration 1,56 µM): 67,72% | % de viabilité cellulaire* (macrophages J77468; Concentration 3,13 µM): 67,36% | % de viabilité cellulaire* (macrophages J77468; Concentration 6,25 µM): 60,70% | % de viabilité cellulaire* (macrophages J77468; Concentration 12,50 µM): 69,47% | % de viabilité cellulaire* (macrophages J77468; Concentration 25,00 µM): 67,71% | % de viabilité cellulaire* (macrophages J77468; Concentration 50,00 µM): 71,22% | % de viabilité cellulaire* (macrophages J77468; Concentration 100,00 µM, versus untreated control): 38,94%
